# Like-named read-outs stand apart in the source and are kept apart here.
# Tests used:
# [1] = at 20° C.; cited from earlier work
# [2] = Water solubility, visual evaluation after 24 hours
# Excerpt: As used herein, the term “solubility” in regard to water solubility includes cases where the sample completely dissolves in deionized water to form a homogeneous mixture, and cases where the sample is completely emulsified. As used herein, “completely” means that no mass of the sample remains in the deionized water.
# [3] = Rewetting rate of sanitary napkin with blood modifying agent-coated top sheet; settings: horse EDTA blood 3 g twice at 37±1° C.; agent coated about 5 g/m^2 on top sheet
# Method: (§1) A commercially available sanitary napkin was prepared. The sanitary napkin was formed from a top sheet, formed of a hydrophilic agent-treated air-through nonwoven fabric (composite fiber composed of polyester and polyethylene terephthalate, basis weight: 35 g/m^2), a second sheet, formed of an air-through nonwoven fabric (composite fiber composed of polyester and polyethylene terephthalate, basis weight: 30 g/m^2), an absorbent body comprising pulp (basis weight: 150-450 g/m^2, increased at the center section), an acrylic super-absorbent polymer (basis weight: 15 g/m^2) and tissue as a core wrap, a water-repellent agent-treated side sheet, and a back sheet composed of a polyethylene film.
# (§2) The skin contact surface of the top sheet of the sanitary napkin was coated with the aforementioned blood modifying agent. Each blood modifying agent was used directly, when the blood modifying agent was liquid at room temperature, or when the blood modifying agent was solid at room temperature it was heated to its […], and a control seam HMA gun was used for atomization of the blood modifying agent and coating onto the entire skin contact surface of the top sheet to a basis weight of about 5 g/m^2.
# (§3) (obtained by adding appropriate amount of ethylenediaminetetraacetic acid (hereunder, “EDTA”) to horse blood to prevent coagulation) was dropped through the hole using a pipette (once), and after 1 minute, 3 g of horse EDTA blood at 37±1° C. was again added dropwise through the acrylic board hole with a pipette (twice).
# [4] = Absorbent body migration rate of sanitary napkin; settings: horse EDTA blood, after second dropping; agent coated about 5 g/m^2
# Method: as §1, §2, §3
# In addition to the rewetting rate evaluation, the “absorbent body migration rate” was also measured as the time until migration of blood from the top sheet to the absorbent body after the second dropping of blood. The absorbent body migration rate is the time from introducing the blood onto the top sheet, until the redness of the blood […] on the surface and in the interior of the top sheet.
Compound,Absorber migration rate [4] [s],also measured
CCCCC(=O)CCCC [5-nonanone],,Vapor pressure [1]: about 230 Pa
CC(C)CCCCCCCCCCCCCCCOC(=O)CC(O)C(=O)OCCCCCCCCCCCCCCCC(C)C (stereo not drawn) [Diisostearyl malate],8,Water solubility (g) [2]: 20< g; Rewetting rate (%) [3]: 5.5%
CCCCCCCCOC(=O)CCCCC(=O)OCCCCCCCC [Dioctyl adipate],6,
"CCCCCCCCCCCCOC(=O)CCCCCCCCCCC [ELECTOL WE20, Ester of dodecanoic acid (C12) and dodecyl alcohol (C12)]",5,
"CCCCCCCCCCCCCC(=O)OCCCCCCCCCCCC [ELECTOL WE40, Ester of tetradecanoic acid (C14) and dodecyl alcohol (C12)]",4,
"CCCCCCCCCCCC(=O)OCC(O)CO (stereo not drawn) [Monomuls 90-L2 lauric acid monoglyceride, lauric acid monoglyceride]",7,
CCCCC(CC)C(=O)OCC(COC(=O)C(CC)CCCC)OC(=O)C(CC)CCCC (stereo not drawn) [PANACET 800B],3,Water solubility [2]: <0.05 g; Rewetting rate (%) [3]: 2.0%
CCCCCCCC(=O)OCC(COC(=O)CCCCCCC)OC(=O)CCCCCCC [PANACET 800],3,
CCCCOC(=O)CC(CC(=O)OCCCC)(OC(C)=O)C(=O)OCCCC [Tributyl O-acetylcitrate],8,"Water solubility ([2]; in 100 g of water at 25° C., 24 hours): <0.05 g; Rewetting rate (%) [3]: 6.2%"
"CCCCC(CC)C(=O)OCC(C)(C)COC(=O)C(CC)CCCC (stereo not drawn) [UNISTAR H-208BRS, Neopentylglycol di-2-ethylhexanoate]",5,
Caprylic acid diglyceride,9,
Isopropyl citrate,5,

# From US9339423B2, “Absorbent article” (UNICHARM CORPORATION, priority 2012, dated 2016)
